Data from US20240350643A1, “PROTEIN DEGRADATION AGENT” (SUZHOU KINTOR PHARMACEUTICALS, INC., priority 2021, published 2024).

Tests used:
HL60 cells = assay: Anti-proliferation ability of compounds on HL60 cells (CTG); type: cell-based, human; settings: Homo sapiens, HL-60, 72 h, 3 days, CellTiter-Glo, read-out: HL60 cells Proliferation inhibitory activity
Procedure: II. Activity test 2: Anti-proliferation ability of compounds on HL60 cells: 1 Cell plating
HL60 cells in the logarithmic growth phase were counted and plated evenly in a 96-well transparent bottom white plate at 20000 cells per well and 100 μL per well.
A certain amount of the compounds was weighed and diluted with DMSO to a 10 mM stock solution. The culture mediums corresponding to the cells were taken, and the drugs were diluted to the concentration required by the test, shaken gently and mixed evenly. 50 μl of the gradient dilution of the diluted compound was added to each well of the plated cells, and 50 μL of 0.1% DMSO was added to the control group. The plate was shaken gently, mixed evenly and incubated in a cell culture incubator for 3 days.
• 3.1 The CellTiter-GLo™ (CTG) reagent was taken in advance from the −20° C. refrigerator and equilibrated to room temperature in the dark (white bottle+brown bottle, 1:1 mixing evenly into the brown bottle, for later use). • 3.2 The 96-well plate was taken out and inspected under a microscope for growth situation. • 3.3 The bottom of the 96-well plate was tagged with white paper, and then the plate was wrapped with tin foil paper, shaken at 37° C. at 300 r for 10 min and mixed evenly. • 3.4 50 ul of CTG detection reagent was added to each well, Luminescence signal was detected using a microplate reader, and the inhibition rate was calculated. IC50 values of the compounds were calculated by XLfit software to evaluate the proliferation inhibitory activity on HL60 cells.

c-Myc protein = target: T1, c-Myc protein (Homo sapiens, UniProt P01106); assay: Ability of compounds to degrade c-Myc protein in HL60 cells (ELISA); type: cell-based; settings: HL-60, 1 μM compound, 24 h, read-out: HL60 cells Protein degradation rate (1 μM)
T1 construct: endogenous in cells; host or cells: HL60 cells
T1 sequence (P01106 whole entry): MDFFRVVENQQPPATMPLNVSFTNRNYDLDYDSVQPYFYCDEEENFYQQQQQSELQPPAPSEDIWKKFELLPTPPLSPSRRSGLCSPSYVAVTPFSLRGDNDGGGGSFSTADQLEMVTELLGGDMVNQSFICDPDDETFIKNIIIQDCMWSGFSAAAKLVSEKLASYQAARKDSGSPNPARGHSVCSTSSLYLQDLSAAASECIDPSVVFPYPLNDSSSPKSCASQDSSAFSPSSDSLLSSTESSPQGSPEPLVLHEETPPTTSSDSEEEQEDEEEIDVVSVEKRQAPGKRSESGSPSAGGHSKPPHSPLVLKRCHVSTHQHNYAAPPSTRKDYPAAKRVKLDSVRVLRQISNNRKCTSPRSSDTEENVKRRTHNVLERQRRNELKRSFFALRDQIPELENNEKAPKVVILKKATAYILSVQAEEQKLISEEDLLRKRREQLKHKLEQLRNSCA
Procedure: I Activity test 1: Ability of compounds to degrade c-Myc protein in HL60 cells:
HL60 cells in the exponential growth phase were centrifuged, diluted with fresh culture mediums to 6×10^4 cells/100 μL and plated into a 96-well plate at 100 μL per well.
Preparation of test compounds: the compounds were weighed and diluted with DMSO to a 10 mM stock solution for later use. According to test requirements, drugs were diluted with cell culture mediums, with ten-fold dilutions starting from 10 μM, to achieve 3 concentration gradients: 10 μM, 1 μM and 100 NM; and finally, 1 μL of the drugs (DMSO content: 0.01%) were added to each well. For the blank control group, DMSO was also diluted with cell culture mediums, and finally, 1 μL of the control reagent (DMSO content: 0.01%) was added to each well.
3. Effect of drugs on c-Myc in cells as determined by ELISA
After 24 h of drug action, the culture mediums were removed, and the cells were washed once with ice-cold 1× PBS. PBS was removed, and 100 μL of ice-cold 1× Cell Lysis Buffer plus 1 mM phenylmethylsulfonyl fluoride (PMSF) was added to each well. The plate was incubated on ice for 20 min and centrifuged at 4000 RPM at 4° C. for 10 min for later use.
4. Reagent and antibody preparation in ELISA kit 1× wash buffer • 1). 16 mL of ELISA wash buffer concentrate (25×) was diluted with 384 mL of deionized water or distilled water, labeled as 1× Wash Buffer. • 2). The concentrate and 1× Wash Buffer were stored in the refrigerator. The diluted buffer was used within 14 days.
The cell extraction buffer contains 10 mM Tris (pH 7.4), 100 mM NaCl, 1 mM EDTA, 1 mM EGTA, 1 mM NaF, 20 mM Na4P2O7 2 mM Na3VO4. 1% Triton™ ×-100, 10% glycerol, 0.1% SDS and 0.5% deoxycholate. Immediately before use, PMSF (0.3 M stock solution in DMSO) was added to the buffer to a final concentration of 1 mM.
Standard curve configuration: The standard liquid was diluted using glass or plastic tubes. • 1). Huc-Myc (total) standard liquid (Invitrogen, KH02041) was reconstituted with a standard dilution to 1000 pg/mL. Refer to the standard vial label for instructions. The contents were gently swirled or mixed and then allowed to stand for 10 minutes to ensure complete reconstitution, labeled as 1,000 pg/mL human c-Myc. The standard liquid was used within 1 hour after reconstitution. • 2). 250 μL of standard dilution buffers were added to 7 test tubes respectively labeled 500, 250, 125, 62.5, 31.25, 15,63 and 0 pg/mL. • 3). 250 μL of the 1000 pg/ml standard stock solution was added to the first EP tube to a concentration of 500 pg/mL, vortexed and mixed evenly. 250 μL of the resulting mixture was further pipetted and added to the second EP tube to a concentration of 250 pg/mL. Serial dilutions were performed until the sixth EP tube with a concentration of 15.63 pg/mL. Dilution was not performed on the last EP tube. • 4). The remaining reconstituted standard liquid should be discarded, or aliquoted and frozen at −80° C. for further use. Standards can be frozen and thawed only once without losing immunoreactivity.
1× anti-rabbit IgG HRP solution: 1× anti-rabbit IgG HRP solution was prepared within 15 minutes of use. The anti-rabbit IgG HRP (100×) contained 50% viscous glycerol. To ensure accurate dilutions, the following operations were carried out: 1 For each 8-well test strip used in the test, 10 μl, of the anti-rabbit IgG -IRP (100×) solution was pipetted, wherein the pipette tip was wiped with clean absorbent paper to remove excess solutions, and then the solution was dispensed into a test tube containing 1 mL of HRP diluent and mixed thoroughly. 2. The unused anti-rabbit IgG HRP (100×) was placed in the refrigerator for storage.
50 μL of the standard liquid was added to the appropriate wells and not added to the blank control well. Except for the blank control well, 50 μL of Hu c-Myc (total) detection antibody solution was added to each well and mixed by tapping the side face of the plate. […]

| SMILES | IC50 (HL60 cells) | inhibition at 1 µM (c-Myc protein) |
| --- | --- | --- |
| CC(C)(C(=O)NCc1ccc(CNC(=O)c2ccc3c(c2)C(=O)N(C2CCC(=O)NC2=O)C3=O)cc1)n1c2ccccc2c2cccnc21 (stereo not drawn) [A32] | 0.433 ± 0.166 µM | 60 to 90% |
| O=C(Cc1nccc2ccccc12)NCc1ccc(CNC(=O)c2ccc3c(c2)C(=O)N(C2CCC(=O)NC2=O)C3=O)cc1 (stereo not drawn) [A33] | 0.0091 ± 0.0003 µM | 60 to 90% |
| O=C(Cc1cccc2cccnc12)NCc1ccc(CNC(=O)c2ccc3c(c2)C(=O)N(C2CCC(=O)NC2=O)C3=O)cc1 (stereo not drawn) [A34] | 0.018 ± 0.006 µM | 60 to 90% |
| O=C(Cc1c(F)ccc2ccccc12)NCc1ccc(CNC(=O)c2ccc3c(c2)C(=O)N(C2CCC(=O)NC2=O)C3=O)cc1 (stereo not drawn) [A35] | 0.0109 ± 0.0048 µM | 60 to 90% |
| O=C(Cc1cccc2ccc(F)cc12)NCc1ccc(CNC(=O)c2ccc3c(c2)C(=O)N(C2CCC(=O)NC2=O)C3=O)cc1 (stereo not drawn) [A36] | 0.0134 ± 0.0033 µM | 30 to 60% |
| O=C(Cc1cccc2ccccc12)NCc1cccc(CNC(=O)c2ccc3c(c2)C(=O)N(C2CCC(=O)NC2=O)C3=O)c1 (stereo not drawn) [A37] | 0.314 µM | 30 to 60% |
| O=C(Cn1c2ccccc2c2cccnc21)NCc1cccc(CNC(=O)c2ccc3c(c2)C(=O)N(C2CCC(=O)NC2=O)C3=O)c1 (stereo not drawn) [A38] | 0.0662 ± 0.0146 µM | 30 to 60% |
| O=C(Cc1cccc2ccccc12)NCCc1ccc(NC(=O)c2ccc3c(c2)C(=O)N(C2CCC(=O)NC2=O)C3=O)cc1 (stereo not drawn) [A39] | 0.979 ± 0.0802 µM | 60 to 90% |
| O=C(Cc1cccc2ccccc12)NCCc1ccc(CNC(=O)c2ccc3c(c2)C(=O)N(C2CCC(=O)NC2=O)C3=O)cc1 (stereo not drawn) [A40] | 0.306 ± 0.0738 µM | 60 to 90% |
| O=C(Cn1c2ccccc2c2cccnc21)NCCc1ccc(CNC(=O)c2ccc3c(c2)C(=O)N(C2CCC(=O)NC2=O)C3=O)cc1 (stereo not drawn) [A41] | 0.155 ± 0.0089 µM | 60 to 90% |
| O=C(Cc1cccc2ccccc12)NCc1ccc(CCNC(=O)c2ccc3c(c2)C(=O)N(C2CCC(=O)NC2=O)C3=O)cc1 (stereo not drawn) [A42] | 3.64 ± 0.895 µM | 60 to 90% |
| O=C(Cn1c2ccccc2c2cccnc21)NCc1ccc(CCNC(=O)c2ccc3c(c2)C(=O)N(C2CCC(=O)NC2=O)C3=O)cc1 (stereo not drawn) [A43] | 0.283 ± 0.0275 µM | 60 to 90% |
| O=C1CCC(N2C(=O)c3ccc(C(=O)NCc4ccc(NC(=O)Cc5cccc6ccccc56)cc4)cc3C2=O)C(=O)N1 (stereo not drawn) [A44] | 5.4 ± 0.683 µM | 30 to 60% |
| O=C1CCC(N2C(=O)c3ccc(C(=O)NCc4ccc(CNC(=O)Nc5cccc6ccccc56)cc4)cc3C2=O)C(=O)N1 (stereo not drawn) [A45] | 0.0616 ± 0.021 µM | 60 to 90% |
| O=C1CCC(N2C(=O)c3ccc(C(=O)NC[C@H]4CC[C@H](CNC(=O)Nc5cccc6ccccc56)CC4)cc3C2=O)C(=O)N1 (stereo partly drawn) [A46] | 0.0502 ± 0.014 µM | 60 to 90% |
| O=C1CCC(N2C(=O)c3ccc(C(=O)NC[C@H]4CC[C@H](CNC(=O)Nc5cccc6cccnc56)CC4)cc3C2=O)C(=O)N1 (stereo partly drawn) [A47] | 1.04 ± 0.171 µM | 60 to 90% |
| O=C1CCC(N2C(=O)c3ccc(C(=O)NC[C@H]4CC[C@H](CNC(=O)Nc5cccc6ccncc56)CC4)cc3C2=O)C(=O)N1 (stereo partly drawn) [A48] | 3.579 ± 0.029 µM | 60 to 90% |
| O=C1CCC(N2C(=O)c3ccc(C(=O)NC[C@H]4CC[C@H](CNC(=O)Nc5cccc6cnccc56)CC4)cc3C2=O)C(=O)N1 (stereo partly drawn) [A49] | 6.82 ± 1.63 µM | 60 to 90% |
| O=C1CCC(N2C(=O)c3ccc(C(=O)NC[C@H]4CC[C@H](CNC(=O)Nc5cccc6ncccc56)CC4)cc3C2=O)C(=O)N1 (stereo partly drawn) [A50] | 10.4 ± 0.235 µM | 10 to 30% |
| O=C1CCC(N2C(=O)c3ccc(C(=O)NC[C@H]4CC[C@H](CNC(=O)Nc5nccc6ccccc56)CC4)cc3C2=O)C(=O)N1 (stereo partly drawn) [A51] | 0.336 ± 0.03 µM | 60 to 90% |
| O=C1CCC(N2C(=O)c3ccc(C(=O)NC[C@H]4CC[C@H](CNC(=O)Nc5cncc6ccccc56)CC4)cc3C2=O)C(=O)N1 (stereo partly drawn) [A52] | 8.06 ± 0.637 µM | 30 to 60% |
| O=C(Cc1ccccc1)NCc1ccc(CNC(=O)c2ccc3c(c2)C(=O)N(C2CCC(=O)NC2=O)C3=O)cc1 (stereo not drawn) [A53] | 1.45 ± 0.28 µM | 60 to 90% |
| COc1ccccc1CC(=O)NCc1ccc(CNC(=O)c2ccc3c(c2)C(=O)N(C2CCC(=O)NC2=O)C3=O)cc1 (stereo not drawn) [A54] | 2.33 ± 0.518 µM | 60 to 90% |
| COc1cccc(CC(=O)NCc2ccc(CNC(=O)c3ccc4c(c3)C(=O)N(C3CCC(=O)NC3=O)C4=O)cc2)c1 (stereo not drawn) [A55] | 0.181 ± 0.0328 µM | 60 to 90% |
| COc1cccc(CC(=O)NCc2ccc(CNC(=O)c3ccc4c(c3)C(=O)N(C3CCC(=O)NC3=O)C4=O)cc2)c1OC (stereo not drawn) [A56] | 0.666 ± 0.0602 µM | 60 to 90% |
| O=C(Cc1ccccc1Cl)NCc1ccc(CNC(=O)c2ccc3c(c2)C(=O)N(C2CCC(=O)NC2=O)C3=O)cc1 (stereo not drawn) [A57] | 0.214 ± 0.0047 µM | 60 to 90% |
| O=C(Cc1cccc(Cl)c1)NCc1ccc(CNC(=O)c2ccc3c(c2)C(=O)N(C2CCC(=O)NC2=O)C3=O)cc1 (stereo not drawn) [A58] | 0.285 ± 0.0107 µM | 60 to 90% |
| O=C(Cc1ccc(Cl)cc1)NCc1ccc(CNC(=O)c2ccc3c(c2)C(=O)N(C2CCC(=O)NC2=O)C3=O)cc1 (stereo not drawn) [A59] | 0.173 ± 0.0613 µM | 60 to 90% |
| O=C(Cc1cccc(Cl)c1Cl)NCc1ccc(CNC(=O)c2ccc3c(c2)C(=O)N(C2CCC(=O)NC2=O)C3=O)cc1 (stereo not drawn) [A60] | 0.0485 ± 0.006 µM | 10 to 30% |
| O=C(CCc1cccc(Cl)c1Cl)NCc1ccc(CNC(=O)c2ccc3c(c2)C(=O)N(C2CCC(=O)NC2=O)C3=O)cc1 (stereo not drawn) [A61] | 0.108 ± 0.0065 µM | 60 to 90% |
